# US20160151335A1, “METHODS OF MODULATING CFTR ACTIVITY” (PROTEOSTASIS THERAPEUTICS, INC., priority 2013, published 2016)
# Target: T1, ΔF508-CFTR (Homo sapiens, UniProt P13569, DEL508-508)
# T1 construct: Primary lung epithelial cells (hBEs) homozygous for the Cystic Fibrosis-causing ΔF508 mutation; endogenous in cells; host or cells: primary lung (bronchial) epithelial cells (hBE) homozygous for ΔF508, differentiated at an air-liquid interface
# Experiment: hBE equivalent current (Ieq) assay, AUC of equivalent chloride current
# Format: cell-based
# Details: compound at 10 uM, 24 h, primary hBE cells homozygous ΔF508; AUC increase relative to VX-809 at 1 uM
# Protocol: Primary lung epithelial cells homozygous for the Cystic Fibrosis-causing ΔF508 mutation were differentiated for a minimum of 4 weeks in an air-liquid interface on Costar 24 well HTS filter plates prior to the equivalent current (Ieq) measurements. Cells were apically mucus-washed for 30 minutes 24 h prior to treatment with compounds. The basolateral media was removed and replaced with media containing the compound of interest diluted to its final concentration from DMSO stocks. Treated cells were incubated at 37° C. and 5% CO2 for 24 hours. At the end of the treatment period, the media was changed to the Ieq experimental solution for 30 minutes before the experiment and plates are maintained in a CO2-free incubator during this period. The plates containing the cells were then placed in pre-warmed heating blocks at 36° C.±0.5 for 15 minutes before measurements are taken. The transepithelial voltage (VT) and conductance (GT) were measured using a custom 24 channel current clamp (TECC-24) with 24 well electrode manifold. The Ieq assay measurements were made following additions with standardized time periods: • 1. The baseline VT and GT values were measured for approximately 20 minutes. • 2. Benzamil was added to block ENaC for 15 minutes. • 3. Forskolin plus VX-770 were added to maximally activate ΔF508-CFTR for 27 minutes. • 4. Bumetanide was added to inhibit the NaK2Cl cotransporter and shut-off secretion of chloride. The activity data captured was the area under the curve (AUC) for the traces of the equivalent chloride current. The AUC was collected from the time of the forskolin/VX-770 addition until the inhibition by bumetanide addition. Correction in response to compound treatment was scored as the increase in the AUC for compound-treated samples over that of vehicle-treated samples. (++ indicates activity ≧25% run at 10 uM of VX-809 at 1 uM, + indicates activity 10 to ≦25% run at 10 uM of VX-809 at 1 uM.
# T1 sequence (P13569 with tags, fused parts or gaps DEL508-508): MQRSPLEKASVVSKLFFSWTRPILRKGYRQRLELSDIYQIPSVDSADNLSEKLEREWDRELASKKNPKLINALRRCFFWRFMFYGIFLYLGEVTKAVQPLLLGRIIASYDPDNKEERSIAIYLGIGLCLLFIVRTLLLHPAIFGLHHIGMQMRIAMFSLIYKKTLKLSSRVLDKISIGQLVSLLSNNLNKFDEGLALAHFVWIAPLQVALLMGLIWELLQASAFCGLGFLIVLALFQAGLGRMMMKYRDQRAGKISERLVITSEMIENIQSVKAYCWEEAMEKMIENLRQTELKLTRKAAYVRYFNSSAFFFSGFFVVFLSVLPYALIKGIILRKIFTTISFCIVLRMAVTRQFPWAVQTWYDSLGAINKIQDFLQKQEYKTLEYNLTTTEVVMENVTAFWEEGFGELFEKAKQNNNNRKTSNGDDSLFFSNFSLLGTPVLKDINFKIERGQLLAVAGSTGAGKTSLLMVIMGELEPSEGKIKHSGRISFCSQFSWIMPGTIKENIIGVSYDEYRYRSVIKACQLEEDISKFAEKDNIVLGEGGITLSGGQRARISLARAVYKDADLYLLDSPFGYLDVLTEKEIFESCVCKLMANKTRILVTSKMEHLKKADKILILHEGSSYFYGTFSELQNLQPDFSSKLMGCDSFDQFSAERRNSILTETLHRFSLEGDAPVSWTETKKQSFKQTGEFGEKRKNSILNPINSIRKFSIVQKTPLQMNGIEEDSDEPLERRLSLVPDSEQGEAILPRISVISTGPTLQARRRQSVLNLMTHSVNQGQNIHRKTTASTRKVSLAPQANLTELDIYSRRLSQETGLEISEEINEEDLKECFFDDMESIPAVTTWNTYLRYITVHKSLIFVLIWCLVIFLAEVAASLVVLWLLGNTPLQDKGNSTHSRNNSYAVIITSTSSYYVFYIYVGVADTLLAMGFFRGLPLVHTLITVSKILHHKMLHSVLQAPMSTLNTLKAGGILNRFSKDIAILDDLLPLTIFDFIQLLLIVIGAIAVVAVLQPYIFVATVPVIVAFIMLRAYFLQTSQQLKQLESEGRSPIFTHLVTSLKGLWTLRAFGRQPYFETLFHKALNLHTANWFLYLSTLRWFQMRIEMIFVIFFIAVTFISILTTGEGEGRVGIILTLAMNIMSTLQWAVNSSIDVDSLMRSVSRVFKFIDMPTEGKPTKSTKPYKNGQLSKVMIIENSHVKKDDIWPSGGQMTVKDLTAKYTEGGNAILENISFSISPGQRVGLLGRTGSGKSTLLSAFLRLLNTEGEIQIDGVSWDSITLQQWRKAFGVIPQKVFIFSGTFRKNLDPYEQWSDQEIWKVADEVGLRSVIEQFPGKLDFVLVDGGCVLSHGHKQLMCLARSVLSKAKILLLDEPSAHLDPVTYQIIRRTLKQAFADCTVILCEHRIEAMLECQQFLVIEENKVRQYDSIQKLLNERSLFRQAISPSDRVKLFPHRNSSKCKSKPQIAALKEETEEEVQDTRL
row,Compound,Ieq hBE Activity
1,O=C(NCCCn1ccnc1)c1cc(-c2ccccc2)on1 [Compound 16],++ (++ indicates activity ≧25% run at 10 uM of VX-809 at 1 uM)
2,O=C(NCCc1ccccn1)c1cc(-c2cccs2)on1 [Compound 232],++ (++ indicates activity ≧25% run at 10 uM of VX-809 at 1 uM)
3,Cn1c(CCCNC(=O)c2cc(-c3ccccc3)on2)nc2ccccc21 [Compound 17],+ (+ indicates activity 10 to ≦25% run at 10 uM of VX-809 at 1 uM)
4,O=C(NCCCn1cccn1)c1cc(-c2ccccc2)on1 [Compound 189],++ (++ indicates activity ≧25% run at 10 uM of VX-809 at 1 uM)
5,Cc1nnsc1CNC(=O)c1cc(-c2ccccc2)on1 [Compound 344],+ (+ indicates activity 10 to ≦25% run at 10 uM of VX-809 at 1 uM)
6,O=C(NCCCN1CCOCC1)c1cc(-c2ccc(F)cc2)on1 [Compound 128],+ (+ indicates activity 10 to ≦25% run at 10 uM of VX-809 at 1 uM)
7,O=C(NCCc1cccnc1)c1cc(-c2ccccc2)on1 [Compound 101],++ (++ indicates activity ≧25% run at 10 uM of VX-809 at 1 uM)
8,Nc1nnc(CCCNC(=O)c2cc(-c3ccccc3)on2)s1 [Compound 201],++ (++ indicates activity ≧25% run at 10 uM of VX-809 at 1 uM)
9,O=C(Nc1cccnc1)c1cc(-c2ccccc2)on1 [Compound 345],+ (+ indicates activity 10 to ≦25% run at 10 uM of VX-809 at 1 uM)
10,Cn1nncc1CCCNC(=O)c1cc(-c2ccccc2)on1 [Compound 295],+ (+ indicates activity 10 to ≦25% run at 10 uM of VX-809 at 1 uM)
11,CN(CC1CCCO1)C(=O)c1cc(CN2CCOCC2)on1 (stereo not shown) [Compound 256],+ (+ indicates activity 10 to ≦25% run at 10 uM of VX-809 at 1 uM)
12,O=C(NCC1CCCC1)c1cc(-c2ccccc2)on1 [Compound 51],+ (+ indicates activity 10 to ≦25% run at 10 uM of VX-809 at 1 uM)
13,CCn1nc(C)c(CCNC(=O)c2cc(-c3ccccc3)on2)c1C [Compound 10],+ (+ indicates activity 10 to ≦25% run at 10 uM of VX-809 at 1 uM)
14,O=C(NCCCc1ccoc1)c1cc(-c2ccccc2)on1 [Compound 194],+ (+ indicates activity 10 to ≦25% run at 10 uM of VX-809 at 1 uM)
15,O=C(NCCC1CCOCC1)c1cc(-c2cccs2)on1 [Compound 230],++ (++ indicates activity ≧25% run at 10 uM of VX-809 at 1 uM)
16,O=C(NCC1CCCO1)c1cc(-c2cccs2)on1 (stereo not shown) [Compound 225],++ (++ indicates activity ≧25% run at 10 uM of VX-809 at 1 uM)
17,"O=C(NC[C@@H]1CCCO1)c1cc(-c2ccccc2)on1 [Compound 2, (S)-5-phenyl-N-((tetrahydrofuran-2-yl)methyl)isoxazole-3-carboxamide]",++ (++ indicates activity ≧25% run at 10 uM of VX-809 at 1 uM)
18,O=C(NCCc1noc(C2CCCC2)n1)c1cc(-c2ccccc2)on1 [Compound 12],++ (++ indicates activity ≧25% run at 10 uM of VX-809 at 1 uM)
19,Cc1ncc(NCCNC(=O)c2cc(-c3ccccc3)on2)[nH]c1=O [Compound 375],+ (+ indicates activity 10 to ≦25% run at 10 uM of VX-809 at 1 uM)
20,O=C(NCc1ccco1)c1cc(-c2ccccc2)on1 [Compound 20],+ (+ indicates activity 10 to ≦25% run at 10 uM of VX-809 at 1 uM)
21,O=C(NCCn1ccnn1)c1cc(-c2cccs2)on1 [Compound 377],++ (++ indicates activity ≧25% run at 10 uM of VX-809 at 1 uM)
22,COCCNC(=O)c1cc(-c2cccs2)on1 [Compound 224],++ (++ indicates activity ≧25% run at 10 uM of VX-809 at 1 uM)
23,O=C(NCCCn1ccnc1)c1cc(-c2cccs2)on1 [Compound 237],++ (++ indicates activity ≧25% run at 10 uM of VX-809 at 1 uM)
24,O=C(NCCN1CCOCC1)c1cc(-c2cccs2)on1 [Compound 229],+ (+ indicates activity 10 to ≦25% run at 10 uM of VX-809 at 1 uM)
25,O=C(NCCC1CCOCC1)c1cc(-c2ccccc2)on1 [Compound 90],++ (++ indicates activity ≧25% run at 10 uM of VX-809 at 1 uM)
26,Cn1ccnc1SCCNC(=O)c1cc(-c2ccccc2)on1 [Compound 18],++ (++ indicates activity ≧25% run at 10 uM of VX-809 at 1 uM)
27,Cc1nc(CCCNC(=O)c2cc(-c3ccccc3)on2)sc1C [Compound 191],++ (++ indicates activity ≧25% run at 10 uM of VX-809 at 1 uM)
28,COCc1nc(CNC(=O)c2cc(-c3ccccc3)on2)no1 [Compound 372],++ (++ indicates activity ≧25% run at 10 uM of VX-809 at 1 uM)
29,O=C(NCCCCO)c1cc(-c2cccs2)on1 [Compound 349],++ (++ indicates activity ≧25% run at 10 uM of VX-809 at 1 uM)

# Target: T1, ΔF508-CFTR
# Experiment: Ussing chamber short-circuit current measurement, CFTRinh-172-inhibitable current
# Format: cell-based
# Details: compound at 10 uM alone, 24 h, primary hBE cells homozygous ΔF508; relative to VX-809 (1 uM)
# Protocol: Primary lung epithelial cells (hBEs) homozygous for the Cystic Fibrosis-causing ΔF508 mutation were differentiated for a minimum of 4 weeks in an air-liquid interface on SnapWell filter plates prior to the Ussing measurements. Cells were apically mucus-washed for 30 minutes prior to treatment with compounds. The basolateral media was removed and replaced with media containing the compound of interest diluted to its final concentration from DMSO stocks. Treated cells were incubated at 37° C. and 5% CO2 for 24 hours. At the end of the treatment period, the cells on filters were transferred to the Ussing chamber and equilibrated for 30 minutes. The short-circuit current was measured in voltage clamp-mode (Vhold=0 mV), and the entire assay was conducted at a temperature of 36° C.-36.5° C. Once the voltages stabilized, the chambers were clamped, and data was recorded by pulse readings every 5 seconds. Following baseline current stabilization, the following additions were applied and the changes in current and resistance of the cells monitored: • 1. Benzamil to the apical chamber to inhibit ENaC sodium channel. • 2. Forskolin to both chambers to activate ΔF508-CFTR by phosphorylation. • 3. Genistein to both chambers to potentiate ΔF508-CFTR channel opening. • 4. CFTRinh-172 to the apical chamber to inhibit ΔF508-CFTR Cl− conductance.
# The inhibitable current (that current that is blocked by CFTRinh-172) was measured as the specific activity of the ΔF508-CFTR channel, and increases in response to compound in this activity over that observed in vehicle-treated samples were identified as the correction of ΔF508-CFTR function imparted by the compound tested. ++ indicates activity ≧25% of VX-809 (1 uM) with compound at 10 uM and VX-809 at 1 uM; ** indicates activity ≧200% of VX-809 (1 uM) with compound at 10 uM and VX-809 at 1 uM; ** indicates activity 100-200% of VX-809 (1 uM) with compound at 10 uM and VX-809 at 1 uM; The transepithelial resistance (TER) for these compounds are within 30% of DMSO controls.
row,Compound,Solo % VX809 (Ussing activity)
1,Cc1cn(CCNC(=O)c2cc(-c3ccccc3)on2)nn1 [Compound 9],++ (++ indicates activity ≧25% of VX-809 (1 uM) with compound at 10 uM and VX-809 at 1 uM)
2,O=C(NCCCn1ccnc1)c1cc(-c2ccccc2)on1 [Compound 16],++ (++ indicates activity ≧25% of VX-809 (1 uM) with compound at 10 uM and VX-809 at 1 uM)
3,Cn1ccnc1SCCNC(=O)c1cc(-c2ccccc2)on1 [Compound 18],++ (++ indicates activity ≧25% of VX-809 (1 uM) with compound at 10 uM and VX-809 at 1 uM)

# Same assay, conditions: compound at 10 uM with VX-809 at 1 uM, 24 h, primary hBE cells homozygous ΔF508; relative to VX-809 (1 uM)
row,Compound,Combination % VX809 (Ussing activity)
1,O=C(NCCCn1ccnc1)c1cc(-c2ccccc2)on1 [Compound 16],** (** indicates activity ≧200% of VX-809 (1 uM) with compound at 10 uM and VX-809 at 1 uM)
2,Cn1ccnc1SCCNC(=O)c1cc(-c2ccccc2)on1 [Compound 18],** (** indicates activity ≧200% of VX-809 (1 uM) with compound at 10 uM and VX-809 at 1 uM)
